# Active and inactive are the calls of the source.
# Assays:
# [1] = cytotoxicity in HEK-293T cells, dose response, cytotoxicity control for BCR NF-kB inhibitor project, luminescence, B-cell screen hits (AID 489021); format: functional, cell-based;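 also: HEK-293T cells carrying an NF-kB luciferase reporter; cells exposed to compound for about 14 hours before viability readout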
# [2] = target: T1, Orexin/Hypocretin receptor type 1 (Homo sapiens, UniProt O43613); assay: (§1) Fluorescence-based cell-based high throughput dose response assay for antagonists of the orexin 1 receptor (OX1R; HCRTR1). [Related pubchem assays (depositor defined):AID434989, AID435008, AID463079, AID485270, AID492963, AID492964, AID492965, AID493232, AID504717, AID504718]; format: functional
# T1 sequence (O43613 whole entry): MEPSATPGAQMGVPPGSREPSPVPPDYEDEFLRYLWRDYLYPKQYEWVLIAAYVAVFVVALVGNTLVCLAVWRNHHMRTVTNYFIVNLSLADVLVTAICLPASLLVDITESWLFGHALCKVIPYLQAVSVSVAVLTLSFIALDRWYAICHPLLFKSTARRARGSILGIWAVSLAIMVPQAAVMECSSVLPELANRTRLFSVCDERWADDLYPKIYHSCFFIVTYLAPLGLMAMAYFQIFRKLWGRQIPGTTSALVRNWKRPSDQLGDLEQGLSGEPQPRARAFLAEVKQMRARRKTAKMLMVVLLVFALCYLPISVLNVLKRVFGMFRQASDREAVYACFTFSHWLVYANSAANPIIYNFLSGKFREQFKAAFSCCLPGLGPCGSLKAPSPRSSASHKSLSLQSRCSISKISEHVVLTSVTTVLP
# [3] = target: T2, Heat shock factor protein 1 (Mus musculus, UniProt P38532); assay: inhibition of MG132-induced HSE-luciferase signal, confirmation, cell-based, NIH3T3, luminescence, dose retest (AID 2382); format: functional;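 also: NIH3T3 fibroblasts with HSF1-driven luciferase reporter stressed by proteasome inhibitor MG132; luminescence from HSF1-driven luciferase expression after 8 hours of MG132 stress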
# T2 sequence (P38532 whole entry): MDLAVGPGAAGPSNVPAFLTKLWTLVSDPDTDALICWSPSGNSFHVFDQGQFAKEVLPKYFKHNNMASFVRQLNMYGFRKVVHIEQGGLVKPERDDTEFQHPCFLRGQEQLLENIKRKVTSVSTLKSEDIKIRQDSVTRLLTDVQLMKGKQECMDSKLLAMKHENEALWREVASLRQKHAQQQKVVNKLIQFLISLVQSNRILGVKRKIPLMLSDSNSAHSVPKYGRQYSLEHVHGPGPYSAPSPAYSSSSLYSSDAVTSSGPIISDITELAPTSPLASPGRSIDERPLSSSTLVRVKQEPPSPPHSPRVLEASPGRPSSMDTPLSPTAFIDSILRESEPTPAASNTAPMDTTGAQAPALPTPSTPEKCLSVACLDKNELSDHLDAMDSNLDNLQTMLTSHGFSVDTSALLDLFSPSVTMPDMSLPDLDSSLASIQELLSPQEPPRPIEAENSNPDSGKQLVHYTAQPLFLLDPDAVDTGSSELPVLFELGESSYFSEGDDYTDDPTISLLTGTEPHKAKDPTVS
# [4] = target: T1, Orexin/Hypocretin receptor type 1; assay: as §1, with “Homogeneous Time Resolved Fluorescence (HTRF)-based” for “Fluorescence-based”; format: functional
# [5] = target: T3, Replicative DNA helicase DnaB (Mycobacterium tuberculosis, UniProt P9WMR3); assay: DnaB intein splicing inhibitors, dose response, biochemical, cell-free fluorescence (AID 449749); format: functional
# T3 sequence (P9WMR3 whole entry): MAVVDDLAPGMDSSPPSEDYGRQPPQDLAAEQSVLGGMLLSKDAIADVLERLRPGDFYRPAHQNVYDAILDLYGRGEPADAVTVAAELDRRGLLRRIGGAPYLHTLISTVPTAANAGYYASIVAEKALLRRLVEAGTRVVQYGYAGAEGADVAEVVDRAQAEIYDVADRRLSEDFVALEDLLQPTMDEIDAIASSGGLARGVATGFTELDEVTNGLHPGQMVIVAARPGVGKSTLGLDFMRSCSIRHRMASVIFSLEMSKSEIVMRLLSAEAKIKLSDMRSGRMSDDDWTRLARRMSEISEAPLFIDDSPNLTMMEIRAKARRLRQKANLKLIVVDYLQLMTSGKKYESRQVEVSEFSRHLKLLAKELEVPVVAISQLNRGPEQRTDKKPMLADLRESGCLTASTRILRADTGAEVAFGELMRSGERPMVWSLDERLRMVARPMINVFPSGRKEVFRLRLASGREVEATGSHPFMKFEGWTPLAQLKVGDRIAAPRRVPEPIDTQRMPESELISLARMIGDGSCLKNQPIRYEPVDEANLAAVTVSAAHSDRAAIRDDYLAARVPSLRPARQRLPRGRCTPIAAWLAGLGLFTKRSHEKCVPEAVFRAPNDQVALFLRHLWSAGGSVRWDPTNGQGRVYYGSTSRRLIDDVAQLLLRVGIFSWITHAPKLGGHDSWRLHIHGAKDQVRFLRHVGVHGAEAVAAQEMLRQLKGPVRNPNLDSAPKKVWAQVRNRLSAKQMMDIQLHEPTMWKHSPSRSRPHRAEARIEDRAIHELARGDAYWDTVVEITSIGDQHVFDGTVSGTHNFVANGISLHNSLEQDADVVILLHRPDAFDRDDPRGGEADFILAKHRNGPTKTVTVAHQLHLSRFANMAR
# [6] = (§2) Counterscreen for antagonists of the orexin 1 receptor (OX1R; HCRTR1): Fluorescence-based cell-based high throughput dose response assay to identify antagonists of the parental CHO cell line. [Related pubchem assays (depositor defined):AID434989, AID435008, AID463079, AID485270, AID492963, AID492964, AID492965, AID493232, AID504699, AID504701]; format: functional
# [7] = target: T4, Protein RecA (Mycobacterium tuberculosis, UniProt P9WHJ3); assay: Fluorescence Cell-Free Homogeneous Dose Retest to Identify Inhibitors of RecA-Intein Splicing Activity. [Related pubchem assays (depositor defined):AID2097, AID2223, AID489010, AID492950]; format: functional
# T4 sequence (P9WHJ3 whole entry): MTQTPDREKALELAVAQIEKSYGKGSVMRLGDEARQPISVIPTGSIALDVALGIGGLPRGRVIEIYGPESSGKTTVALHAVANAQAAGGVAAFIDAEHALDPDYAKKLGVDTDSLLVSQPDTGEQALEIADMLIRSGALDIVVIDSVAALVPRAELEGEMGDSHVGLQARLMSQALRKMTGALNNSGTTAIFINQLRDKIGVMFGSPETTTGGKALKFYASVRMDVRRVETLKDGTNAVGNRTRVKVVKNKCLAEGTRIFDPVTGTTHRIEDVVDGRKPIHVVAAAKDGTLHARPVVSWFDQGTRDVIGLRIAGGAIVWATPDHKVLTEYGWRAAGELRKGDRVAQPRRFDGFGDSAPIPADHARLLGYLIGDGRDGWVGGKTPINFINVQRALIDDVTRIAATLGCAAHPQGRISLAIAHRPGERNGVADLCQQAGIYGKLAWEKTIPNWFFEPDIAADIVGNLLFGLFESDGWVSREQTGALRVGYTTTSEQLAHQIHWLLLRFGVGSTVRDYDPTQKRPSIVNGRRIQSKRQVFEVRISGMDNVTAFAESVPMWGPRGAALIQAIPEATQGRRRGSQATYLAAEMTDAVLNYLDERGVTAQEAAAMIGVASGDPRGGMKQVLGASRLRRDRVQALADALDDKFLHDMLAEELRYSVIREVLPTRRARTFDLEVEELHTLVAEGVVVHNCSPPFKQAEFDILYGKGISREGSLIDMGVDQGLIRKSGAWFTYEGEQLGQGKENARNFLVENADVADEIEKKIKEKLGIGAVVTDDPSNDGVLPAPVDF
# [8] = system: CHO-K1; assay: as §2, with “Homogeneous time resolved fluorescence (HTRF)-based” for “Fluorescence-based”, “cell-based” for “cell-based high throughput”, “CHO-K1” for “CHO”; format: functional; conditions: Cricetulus griseus;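 also: potency for inhibition of ATP-stimulated IP1 production as antagonists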
# [9] = target: T5, Hexokinase (Trypanosoma brucei, UniProt Q38C41); assay: Confirmation assay for inhibitors of Trypanosoma brucei hexokinase 1-Analogue-first series. [Related pubchem assays (depositor defined):AID1430, AID1632, AID2516, AID2560, AID2579, AID2600, AID449725, AID492951]; format: functional
# T5 sequence (Q38C41 whole entry): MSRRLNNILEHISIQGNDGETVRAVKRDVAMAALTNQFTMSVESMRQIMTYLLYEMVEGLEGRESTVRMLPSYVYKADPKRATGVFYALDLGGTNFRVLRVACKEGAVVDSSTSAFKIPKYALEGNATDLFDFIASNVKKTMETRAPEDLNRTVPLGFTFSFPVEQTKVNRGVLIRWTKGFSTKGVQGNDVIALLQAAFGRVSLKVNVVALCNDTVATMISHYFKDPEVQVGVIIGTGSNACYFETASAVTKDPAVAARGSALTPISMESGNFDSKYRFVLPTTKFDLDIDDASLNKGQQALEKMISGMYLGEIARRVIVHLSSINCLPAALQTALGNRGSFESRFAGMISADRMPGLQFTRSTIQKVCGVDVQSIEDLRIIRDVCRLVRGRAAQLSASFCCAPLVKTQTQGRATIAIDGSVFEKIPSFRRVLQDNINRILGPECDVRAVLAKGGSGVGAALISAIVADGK
# [10] = target: T6, Carboxy-terminal domain RNA polymerase II polypeptide A small phosphatase 1 (Homo sapiens, UniProt Q9GZU7); assay: inhibitors of CTDSP1, concentration-response testing, biochemical assay, absorbance-based, actives from ultra-high-throughput screening (AID 540297); format: functional
# T6 sequence (Q9GZU7 whole entry): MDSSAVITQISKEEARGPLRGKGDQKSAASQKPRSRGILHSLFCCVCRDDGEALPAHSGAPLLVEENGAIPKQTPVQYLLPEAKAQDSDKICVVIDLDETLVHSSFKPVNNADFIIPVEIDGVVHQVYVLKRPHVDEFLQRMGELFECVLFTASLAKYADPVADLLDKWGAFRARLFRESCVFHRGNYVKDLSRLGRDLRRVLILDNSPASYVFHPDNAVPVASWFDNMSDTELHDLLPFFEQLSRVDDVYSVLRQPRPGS
# [11] = target: Eukaryotic translation initiation factor 4E (Mus musculus, UniProt P63073); assay: eIF4E–eIF4G protein interaction inhibitors, dose response, biochemical, TR-FRET (AID 855); format: functional;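 also: potency for disrupting eIF4E binding to eIF4GI seen as loss of FRET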
# Chain of Eukaryotic translation initiation factor 4E (P63073 whole entry): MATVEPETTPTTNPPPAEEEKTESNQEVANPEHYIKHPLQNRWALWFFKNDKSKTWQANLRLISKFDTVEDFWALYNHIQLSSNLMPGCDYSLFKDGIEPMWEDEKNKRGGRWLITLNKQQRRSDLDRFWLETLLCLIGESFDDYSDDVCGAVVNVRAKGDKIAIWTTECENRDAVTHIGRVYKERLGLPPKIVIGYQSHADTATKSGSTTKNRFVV
# [12] = target: T7, Acyl-homoserine lactone acylase PvdQ (Pseudomonas aeruginosa (strain LESB58), UniProt Q9I194); assay: P. aeruginosa PvdQ acylase inhibitors, dose response, biochemical, fluorescence, plate reader and imaging, cherry-picks (AID 493231)
# T7 sequence (Q9I194 whole entry): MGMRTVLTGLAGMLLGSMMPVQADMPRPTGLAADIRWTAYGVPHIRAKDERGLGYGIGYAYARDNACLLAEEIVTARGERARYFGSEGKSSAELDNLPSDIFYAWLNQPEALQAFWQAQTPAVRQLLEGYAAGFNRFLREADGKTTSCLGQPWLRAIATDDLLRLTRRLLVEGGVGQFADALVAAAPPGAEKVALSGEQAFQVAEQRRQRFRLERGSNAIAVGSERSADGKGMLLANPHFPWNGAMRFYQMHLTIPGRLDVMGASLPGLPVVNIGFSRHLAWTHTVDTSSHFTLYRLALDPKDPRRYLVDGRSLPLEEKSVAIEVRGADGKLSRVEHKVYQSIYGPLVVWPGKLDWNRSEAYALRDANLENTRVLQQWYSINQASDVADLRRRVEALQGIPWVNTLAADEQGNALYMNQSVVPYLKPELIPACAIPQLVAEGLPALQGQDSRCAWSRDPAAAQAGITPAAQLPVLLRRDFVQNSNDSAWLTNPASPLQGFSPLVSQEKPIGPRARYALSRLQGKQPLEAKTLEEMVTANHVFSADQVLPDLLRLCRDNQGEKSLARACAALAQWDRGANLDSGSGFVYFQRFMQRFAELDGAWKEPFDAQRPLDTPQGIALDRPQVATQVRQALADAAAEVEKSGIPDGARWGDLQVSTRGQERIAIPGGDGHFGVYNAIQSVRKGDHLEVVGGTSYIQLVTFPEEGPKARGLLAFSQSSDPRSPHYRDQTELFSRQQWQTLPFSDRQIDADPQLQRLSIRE
# [13] = target: Photoreceptor-specific nuclear receptor (Homo sapiens, UniProt Q9Y5X4); format: functional;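 also: potency for compounds that break the NR2E3 corepressor complex and count as activators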
# Chain of Photoreceptor-specific nuclear receptor (Q9Y5X4 whole entry): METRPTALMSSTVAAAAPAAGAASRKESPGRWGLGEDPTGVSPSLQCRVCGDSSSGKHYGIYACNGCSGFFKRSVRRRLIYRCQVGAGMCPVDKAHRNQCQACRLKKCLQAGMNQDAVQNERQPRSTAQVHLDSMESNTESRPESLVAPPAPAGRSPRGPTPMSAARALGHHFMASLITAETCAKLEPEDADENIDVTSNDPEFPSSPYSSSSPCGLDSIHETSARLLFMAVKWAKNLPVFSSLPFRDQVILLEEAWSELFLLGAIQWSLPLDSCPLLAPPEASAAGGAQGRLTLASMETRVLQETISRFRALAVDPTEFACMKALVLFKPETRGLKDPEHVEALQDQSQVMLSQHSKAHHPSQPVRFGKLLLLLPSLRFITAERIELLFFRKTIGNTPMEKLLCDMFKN
# [14] = target: Peroxisome proliferator-activated receptor gamma/Nuclear receptor corepressor 2 (Homo sapiens, UniProt P37231+Q9Y618); format: functional
# Chain of Peroxisome proliferator-activated receptor gamma/Nuclear receptor corepressor 2 (P37231 whole entry): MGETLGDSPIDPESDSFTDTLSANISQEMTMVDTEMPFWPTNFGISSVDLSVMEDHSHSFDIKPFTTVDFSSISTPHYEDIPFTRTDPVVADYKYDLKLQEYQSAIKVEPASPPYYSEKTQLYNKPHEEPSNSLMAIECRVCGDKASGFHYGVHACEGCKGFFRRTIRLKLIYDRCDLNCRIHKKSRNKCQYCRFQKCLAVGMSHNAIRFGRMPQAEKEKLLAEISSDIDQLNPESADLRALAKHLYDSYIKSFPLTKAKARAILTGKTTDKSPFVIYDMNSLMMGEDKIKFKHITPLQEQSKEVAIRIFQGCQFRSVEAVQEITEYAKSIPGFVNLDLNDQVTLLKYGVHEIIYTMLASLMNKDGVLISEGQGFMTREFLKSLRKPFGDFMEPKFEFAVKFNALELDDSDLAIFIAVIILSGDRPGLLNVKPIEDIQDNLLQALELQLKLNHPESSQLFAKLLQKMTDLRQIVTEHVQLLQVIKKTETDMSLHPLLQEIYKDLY
# Chain of Peroxisome proliferator-activated receptor gamma/Nuclear receptor corepressor 2 (Q9Y618 whole entry): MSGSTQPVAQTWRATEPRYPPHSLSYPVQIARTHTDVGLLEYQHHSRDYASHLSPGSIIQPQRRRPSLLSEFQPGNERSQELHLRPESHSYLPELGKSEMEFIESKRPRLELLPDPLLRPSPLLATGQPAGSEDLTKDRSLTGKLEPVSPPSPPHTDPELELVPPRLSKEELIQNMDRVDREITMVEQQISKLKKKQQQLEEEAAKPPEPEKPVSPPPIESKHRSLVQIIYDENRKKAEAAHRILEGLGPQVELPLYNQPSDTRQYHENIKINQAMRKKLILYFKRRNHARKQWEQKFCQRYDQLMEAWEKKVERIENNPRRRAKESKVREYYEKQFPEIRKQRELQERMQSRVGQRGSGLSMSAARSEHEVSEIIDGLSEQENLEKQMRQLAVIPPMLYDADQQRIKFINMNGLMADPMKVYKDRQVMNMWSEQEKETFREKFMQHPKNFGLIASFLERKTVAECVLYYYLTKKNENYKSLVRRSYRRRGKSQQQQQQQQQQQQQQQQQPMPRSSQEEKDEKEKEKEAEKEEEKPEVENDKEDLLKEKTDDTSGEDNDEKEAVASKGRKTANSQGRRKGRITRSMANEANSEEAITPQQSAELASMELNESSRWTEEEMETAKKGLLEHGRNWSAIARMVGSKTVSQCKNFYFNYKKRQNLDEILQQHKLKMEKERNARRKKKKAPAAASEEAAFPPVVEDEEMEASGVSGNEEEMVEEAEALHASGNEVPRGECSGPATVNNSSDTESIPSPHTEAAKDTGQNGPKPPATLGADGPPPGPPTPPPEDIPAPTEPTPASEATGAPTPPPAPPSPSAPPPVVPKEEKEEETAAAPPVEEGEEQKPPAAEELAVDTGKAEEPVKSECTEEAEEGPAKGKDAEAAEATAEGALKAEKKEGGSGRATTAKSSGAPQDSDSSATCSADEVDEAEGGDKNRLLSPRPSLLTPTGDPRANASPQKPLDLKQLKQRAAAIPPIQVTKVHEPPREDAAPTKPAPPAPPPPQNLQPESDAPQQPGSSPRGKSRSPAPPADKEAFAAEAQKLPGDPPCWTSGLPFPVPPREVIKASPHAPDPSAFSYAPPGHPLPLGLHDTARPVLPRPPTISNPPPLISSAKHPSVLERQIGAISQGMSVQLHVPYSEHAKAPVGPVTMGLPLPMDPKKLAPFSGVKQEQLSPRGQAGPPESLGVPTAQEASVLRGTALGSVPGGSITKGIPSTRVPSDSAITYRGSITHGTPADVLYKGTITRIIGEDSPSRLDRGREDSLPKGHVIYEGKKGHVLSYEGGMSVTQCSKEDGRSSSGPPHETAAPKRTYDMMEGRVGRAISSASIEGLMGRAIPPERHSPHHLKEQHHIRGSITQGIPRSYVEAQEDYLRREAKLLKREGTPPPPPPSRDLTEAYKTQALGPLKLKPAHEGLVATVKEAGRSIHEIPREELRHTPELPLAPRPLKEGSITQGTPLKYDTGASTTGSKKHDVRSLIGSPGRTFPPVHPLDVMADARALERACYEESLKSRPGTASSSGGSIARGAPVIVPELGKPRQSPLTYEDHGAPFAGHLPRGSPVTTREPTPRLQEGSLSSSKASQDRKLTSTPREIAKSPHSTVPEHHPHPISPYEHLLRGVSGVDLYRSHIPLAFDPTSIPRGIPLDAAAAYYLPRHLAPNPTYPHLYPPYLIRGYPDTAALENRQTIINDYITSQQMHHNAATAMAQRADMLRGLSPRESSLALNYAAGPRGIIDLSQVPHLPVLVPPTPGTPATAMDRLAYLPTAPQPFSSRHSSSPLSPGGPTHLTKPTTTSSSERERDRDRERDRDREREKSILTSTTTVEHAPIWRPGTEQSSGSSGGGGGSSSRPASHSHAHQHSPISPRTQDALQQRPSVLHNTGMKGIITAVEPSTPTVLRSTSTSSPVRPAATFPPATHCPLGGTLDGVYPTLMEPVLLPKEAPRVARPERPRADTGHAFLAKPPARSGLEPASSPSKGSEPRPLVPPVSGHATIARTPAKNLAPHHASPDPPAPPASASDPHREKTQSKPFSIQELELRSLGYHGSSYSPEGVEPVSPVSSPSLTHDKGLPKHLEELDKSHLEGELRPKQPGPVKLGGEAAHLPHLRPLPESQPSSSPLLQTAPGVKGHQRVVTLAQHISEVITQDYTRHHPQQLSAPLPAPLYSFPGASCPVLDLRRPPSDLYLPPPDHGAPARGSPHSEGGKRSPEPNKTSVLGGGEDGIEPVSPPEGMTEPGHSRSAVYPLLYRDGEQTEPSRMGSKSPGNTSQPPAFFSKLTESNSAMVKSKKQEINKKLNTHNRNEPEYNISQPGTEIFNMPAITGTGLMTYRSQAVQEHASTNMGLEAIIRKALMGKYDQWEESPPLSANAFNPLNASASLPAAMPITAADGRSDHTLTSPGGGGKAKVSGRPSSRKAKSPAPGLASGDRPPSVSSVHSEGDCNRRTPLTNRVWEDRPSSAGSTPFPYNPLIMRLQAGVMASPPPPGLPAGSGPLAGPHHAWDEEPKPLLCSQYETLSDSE
# [15] = target: Ephrin type-A receptor 4 (Mus musculus, UniProt Q03137); assay: inhibitors of EphA4 binding to KYL peptide, primary screen, biochemical, colorimetric, mouse EphA4 (AID 689); format: functional
# Chain of Ephrin type-A receptor 4 (Q03137 whole entry): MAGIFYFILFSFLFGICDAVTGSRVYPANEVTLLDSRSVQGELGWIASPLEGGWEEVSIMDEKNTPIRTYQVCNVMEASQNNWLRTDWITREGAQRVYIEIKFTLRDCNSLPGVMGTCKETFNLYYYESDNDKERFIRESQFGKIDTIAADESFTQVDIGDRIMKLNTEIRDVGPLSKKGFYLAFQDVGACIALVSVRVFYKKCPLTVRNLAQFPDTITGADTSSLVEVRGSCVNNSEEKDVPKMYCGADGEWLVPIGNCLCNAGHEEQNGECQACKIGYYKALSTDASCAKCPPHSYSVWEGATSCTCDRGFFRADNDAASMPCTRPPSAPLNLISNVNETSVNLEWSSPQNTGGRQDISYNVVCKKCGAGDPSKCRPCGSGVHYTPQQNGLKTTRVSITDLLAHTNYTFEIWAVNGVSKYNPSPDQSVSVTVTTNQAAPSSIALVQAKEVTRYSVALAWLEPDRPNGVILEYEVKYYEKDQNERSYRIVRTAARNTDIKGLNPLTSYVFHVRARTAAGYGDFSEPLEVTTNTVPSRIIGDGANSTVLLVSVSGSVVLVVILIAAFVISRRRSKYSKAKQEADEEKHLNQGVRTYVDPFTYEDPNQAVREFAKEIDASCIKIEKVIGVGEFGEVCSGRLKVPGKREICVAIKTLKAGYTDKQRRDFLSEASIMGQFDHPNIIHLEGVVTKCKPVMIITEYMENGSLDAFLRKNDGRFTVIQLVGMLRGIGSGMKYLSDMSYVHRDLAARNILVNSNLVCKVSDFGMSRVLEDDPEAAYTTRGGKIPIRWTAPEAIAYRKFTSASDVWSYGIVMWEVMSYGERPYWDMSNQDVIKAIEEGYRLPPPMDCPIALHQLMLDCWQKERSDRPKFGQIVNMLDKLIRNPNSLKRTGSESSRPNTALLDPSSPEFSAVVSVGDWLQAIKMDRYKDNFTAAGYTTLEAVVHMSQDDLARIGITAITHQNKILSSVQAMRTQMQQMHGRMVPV
structure (smiles),measurement,setting,value
COc1ccccc1/C=C1\SC(=S)N(CCC(=O)Nc2cccc(O)c2)C1=O,IC50,[1],60.6 µM (inactive)
O=S(=O)(Nc1c(O)ccc2ccccc12)c1cccc2ccccc12,IC50,[2],13.1 µM (inactive)
same,EC50,[3],15.7 µM (active)
same,IC50,[4],2.85 µM (active)
same,AC50,[5],4.4 µM (active)
same,IC50,[6],39.2 µM (inactive)
same,EC50,[7],1.77 µM (active)
same,IC50,[8],56.9 µM (inactive)
COc1cc(-c2[nH]nc3c2C(c2ccco2)C(C#N)=C(N)O3)cc(OC)c1OC (stereo not given),AC50,[5],6.62 µM (active)
same,IC50,[1],> 80 µM (inactive)
same,EC50,[7],0.531 µM (active)
O=C(Nc1cc(Cl)ccc1C(=O)O)c1ccoc1,IC50,[9],> 25 µM (inactive)
Cc1ccc(-n2nc(-c3ccco3)cc2C(=O)O)c(C)c1,IC50,[10],4.94 µM (active)
same,IC50,[11],50 µM (inactive)
CC(C)Cc1ccc(C(=O)Nc2cc(Cl)ccc2C(=O)O)cc1,IC50,[9],7.25 µM (active)
CCOC(=O)CCCn1ncn2c(cc3occc32)c1=O,AC50,[12],12 µM (active)
COC(=O)Sc1nnc(-c2ccc(Br)cc2)o1,IC50,[13],> 39.8 µM (not active)
same,IC50,[14],3.53 µM (active)
same,IC50,[15],13 µM (active)
same,IC50,[11],30.7 µM (active)
O=C1NCC(c2ccccc2)C1C(=O)N/N=C\c1ccc(-c2cccc(Cl)c2Cl)o1 (stereo not given),IC50,[2],2.32 µM (active)
same,IC50,[4],0.648 µM (active)
same,IC50,[6],24.7 µM (inactive)
same,IC50,[8],> 66.2 µM (inactive)
CC(C)(C)c1ccc(C(=O)Nc2c(C(=O)O)ccc(Cl)c2Cl)cc1,IC50,[9],> 25 µM (inactive)

# Source: ChEMBL document CHEMBL1201862, “PubChem BioAssay data set” (2004)
